In PMC6950057, “Toxicity, Pharmacokinetics, and Gut Microbiome of Oral Administration of Sesterterpene MHO7 Derived from a Marine Fungus” (Marine Drugs, 2019):
Read-outs that look alike come from different tables or passages of the source.

Test: Log P by shaking flask method (n-octanol/water)
Format: physicochemical
Procedure: An HPLC system (Shimadzu, Japan) was equipped with a LC-20AD binary pump system, a SIL-20AD auto sampler, a CBM-20A system controller, and a CTO-20A oven. Separation of MHO7 and IS from endogenous substances was carried out on an Agilent Zorbax XDB C18 column (5 μm, 250 × 4.6 mm, Agilent, Pal Alto, CA, USA), which was kept at 30 °C. The mobile phase was composed of 30% phase A (water) and 70% phase B (acetonitrile) with a flow rate of 1 mL·min^−1. The inject volume of the sample solution was 10 μL.
The phases of distilled water and n-octanol were saturated with each other by shaking for 48 h with 250 rpm in a shaking water bath prior to use. Solutions of MHO7 was prepared in concentration of 10 mM·L^−1 in n-octanol. Accurately measured amounts of the two solvents with necessary quantity of MHO7 were placed in a 5.0 mL centrifuge tube; then, the mixture was carried out at 250 rpm and designated temperature in the shaking water bath for 48 h to afford complete phase separation. The samples of both phases were collected at 0, 4, 8, 12, 24, 30, 36 and 48 h, diluted with methanol (1:1, V) and determined by HPLC with the detection wavelength of 234 nm. Each set of solvent systems for experimental logP/D value was the mean of the three determinations.

[1] = pH 7, 37 °C, octanol/ddH2O, read-out: Log P/D Value O/W (pH 7.0)

Compound: CC(C)=C/C=C/[C@H](C)[C@H]1CC[C@]2(C)C[C@@H]3C(C)=CC(=O)[C@H]3/C(C=O)=C\C[C@@H]12 [MHO7, 6-epi-ophiobolin G]
- logP at 4 h (25 °C, read-out: Log P Value): 1.23 ± 0.02
- logP at 8 h (25 °C, read-out: Log P Value): 1.22 ± 0.04
- logP at 12 h (25 °C, read-out: Log P Value): 1.23 ± 0.03
- logP at 24 h (25 °C, read-out: Log P Value): 1.23 ± 0.02
- logP at 30 h (25 °C, read-out: Log P Value): 1.27 ± 0.15
- logP at 36 h (25 °C, read-out: Log P Value): 1.27 ± 0.03
- logP at 48 h (25 °C, read-out: Log P Value): 1.29 ± 0.05
- logP at 4 h [1]: 2.55 ± 0.01
- logP at 8 h [1]: 2.51 ± 0.04
- logP at 12 h [1]: 2.48 ± 0.02
- logP at 24 h [1]: 2.49 ± 0.02
- logP at 30 h [1]: 2.47 ± 0.01
- logP at 36 h [1]: 2.49 ± 0.03
- logP at 48 h [1]: 2.48 ± 0.03
